Like-named read-outs stand apart in the source and are kept apart here.
Key:
[1] = mouse, in vivo
[2] = cynomolgus monkey, in vivo, po; for AUC0->24 h / CL / t1/2 / tmax / Cmax: 0.4 mmol/kg
in vitro [3] = settings: monkey, microsomes
in vitro [4] = settings: human, microsomes
[5] = system: Influenza A/California/07/2009 (H1N1); set-up: species or system ferrets; settings: in vivo, po
[6] = system: Influenza A/Wisconsin/67/2005 (H3N2); set-up: species or system ferrets; settings: in vivo
in vitro [7] = settings: mouse, microsomes
in vitro [8] = settings: rat, microsomes
in vitro [9] = settings: dog, microsomes

Structure (SMILES)	F ([2]; female) [%]	AUC0->24 h ([2]; female) [µM·h]	CL ([2]; female) [mL/min/kg]	t1/2 ([2]; female) [min]	tmax ([2]; female) [min]	AUC0->24 h ([2]; male) [µM·h]	CL ([2]; male) [mL/min/kg]	t1/2 ([2]; male) [min]	tmax ([2]; male) [min]	half-life (in vitro [3]) [min]	half-life (in vitro [4]) [min]	Plasma t1/2 (Plasma stability, mouse) [min]	Plasma t1/2 (Plasma stability, human) [min]	Plasma t1/2 (Plasma stability, monkey) [min]	other results
O=c1nc(NO)ccn1[C@@H]1O[C@H](COP(=O)(O)OP(=O)(O)OP(=O)(O)O)[C@@H](O)[C@H]1O [EIDD-2061]	–	–	–	–	–	–	–	–	–	–	–	–	–	–	Brain Cmax ([1]; 225 mg/kg): 3.5 nmol/g; Brain Cmax ([1]; 750 mg/kg): 5.5 nmol/g; AUC0->t (Vero cells): 13850 pmol · h/M cells; Cmax (Vero cells): 872.0 pmol/M Cells; tmax (Vero cells): 960 min; AUC0->t (Huh-7 cells): 14640 pmol · h/M cells; Cmax (Huh-7 cells): 1113.3 pmol/M Cells; tmax (Huh-7 cells): 1440 min; AUC0->t (HepG2 cells): 299.8 pmol · h/M cells; Cmax (HepG2 cells): 470.3 pmol/M Cells; tmax (HepG2 cells): 960 min; AUC0->t (CEM cells): 2355 pmol · h/M cells; Cmax (CEM cells): 171.3 pmol/M Cells; tmax (CEM cells): 1440 min
CC(C)C(=O)OC[C@H]1O[C@@H](n2ccc(NO)nc2=O)[C@H](OC(=O)C(C)C)[C@@H]1OC(=O)C(C)C [EIDD-2800]	~16	27.4 ± 11.5	265 ± 128	264 ± 72	18.6 ± 7.2	38.9 ± 7.58	152 ± 21.7	330 ± 252	22.2 ± 8.4	2	1	1	1	2	–
CC(C)C(=O)OC[C@H]1O[C@@H](n2ccc(NO)nc2=O)[C@H](O)[C@@H]1O [EIDD-2801]	~26	43.8 ± 17.0	172 ± 93.3	114 ± 78	75 ± 30	31.7 ± 7.82	217 ± 61.7	108 ± 54.6	120 ± 48.6	1	73	–	–	–	Fever [5]: completely avoided; Viral titers in nasal lavage samples [5]: greatly reduced; viral titers in nasal lavage samples and fever [5]: rapidly reduce viral titers in nasal lavage samples as well as fever; viral titers in nasal lavage and turbinates ([6]; 20 mg/kg): greatly reduced; Viral titers in nasal lavage, fever, and viral titers in turbinates ([6]; 100 mg/kg): greatly reduced; Cmax ([2]; female): 12.3 ± 2.33 µM; Cmax ([2]; male): 8.08 ± 1.32 µM; half-life (in vitro [7]): 2 min; half-life (in vitro [8]): 5 min; half-life (in vitro [9]): 1 min
CC(C)[C@H](N)C(=O)OC[C@H]1O[C@@H](n2ccc(NO)nc2=O)[C@H](O)[C@@H]1O [EIDD-2898]	–	–	–	–	–	–	–	–	–	–	–	144	198	138	F [2]: ~15%; F* [2]: ~18%

Reference: patent US11903959B2 (EMORY UNIVERSITY, priority 2017, dated 2024)
